Laboratory results from patent US8703790B2, “Bis [O-(14-benzoylaconine-8-yl)] esters” (priority 2008, dated 2014).
pIC50: −log10 of the molar value.

Columns and labels:
[1] = Partition coefficient log D (pH 7.4), micro HPLC method, n-octanol/phosphate buffer; type: physicochemical; conditions: n-octanol/phosphate buffer pH 7.4
Protocol: The relative log D (pH 7.4) in this study was assessed by the micro HPLC method which is disclosed in A microscale HPLC method for the evaluation of octanol-water partition coefficients in a series of new 2-amino-2oxazolines Pehourcq, F.; Thomas, J.; Jarry, C., J. Liq. Chromatogr. Relat. Technol. (2000), 23, 443-453.
These determinations were performed with a chromatographic apparatus (Spectra Series, San Jose, USA). A reversed phase column was used: a Stability RP18 (4.6×150 mm; 5 μm particle size) with a mobile phase consisting of acetonitrile (+1‰ trifluoroacetic acid)−water (+1‰ trifluoroacetic acid) (40:60 v/v).
The compound was partitioned between n-octanol (HPLC grade) and phosphate buffer (pH=7.4). Octanol was presatured with buffer, and conversely. An amount of 1 mg of the compound was dissolved in an adequate volume of methanol in order to achieve 1 mg/mL stock solutions. Then, an appropriate aliquot of this methanolic solution was dissolved in buffer to obtain final concentration of 100 μg/mL. Under the above described chromatographic conditions, 20 μL of this aqueous phase was injected into the chromatograph, leading to the determination of a peak area before partitioning (W0).
In screw-capped tubes, 2000 μL of the aqueous phase (Vag) was then added to 10 μL of n-octanol (Voct) at pH=7.4. […] Log D was calculated from the formula: log D=log [(W0−W1)Vaq/W1Voct].

MCF-7 (breast cancer) = assay: In vitro cytotoxicity test (MTT) against human tumour cell line MCF-7; type: cell-based; conditions: MCF-7, 24 h contact, 48 h re-growth
Protocol: (§1) Human tumour cell lines A549 (lung cancer), HCT-15 (colon cancer) and MCF-7 (breast cancer) have been obtained from the Developmental Therapeutics Program of the National Cancer Institute (Rockville, Md., USA). Cells were routinely grown with RPMI 1640 medium supplemented with 10% foetal calf serum, both obtained from Biochrom AG (Berlin, Germany). They were grown on Petri dishes (Nunc, Denmark) at 37° C. in a humidified atmosphere containing 5% CO2. Cells were replicated every 4 days and the medium changed once in-between.
(§2) Cytotoxicity has been evaluated on exponentially growing cells grown for 24 h in presence of the compounds to be tested. Briefly, 4000 cells were seeded in 96-well plates with 200 μL of complete medium; 24 hours later the medium was supplemented with a series of different concentrations of compounds and the contact maintained for 24 h. Compounds were dissolved in pure water and sterilised using polycarbonate membrane filters of 0.22 μm (Millipore, Molsheim, France). The cells were then allowed to re-grow for 48 hours; viable and metabolically active cells were quantitatively estimated by coloration with the MTT dye (1-(4,5-dimethylthyazol-2-yl)-3,5-diphenylformazan), Sigma-Aldrich Chimie, Saint-Quentin-Fallavier, France). The amount of substance allowing a 50% decrease in cell numbers is indicative of the cytotoxicity and represents the IC50 of compound.

female Swiss mouse = assay: Acute systemic toxicity, preliminary test, intravenous; type: in vivo; conditions: for death of the animal, time after the test item administration: 1 female Swiss mouse
Protocol: The study has been performed to assess the acute systemic toxicity of SDD in the mouse preliminary test.
The SDD was administered, by intravenous route: • in a first step to 1 female Swiss mouse at the single dose of 95 mg/kg b.w., • in a second step to 1 female Swiss mouse at the single dose of 60 mg/kg b.w., • in a third step to 1 female Swiss mouse at the single dose of 55 mg/kg b.w., and • in a fourth step to a group of 2 female Swiss mice at the single dose of 50 mg/kg b.w.

female Swiss mice = assay: Acute systemic toxicity, main test, intravenous; type: in vivo, mouse
Protocol: The SDD was administered by intravenous route at the dose of 50 mg/kg body weight to a group of 5 female Swiss mice. The experimental protocol was established from the International standard NF EN ISO 10993-11 concerning biological evaluation of medical devices: “Tests for systemic toxicity”.

[2] = test system: DNA topoisomerase II (Topo II); assay: Topo II catalytic activity, decatenation of kDNA; type: biochemical; conditions: 1, 10, 100 and 1000 μM; dose independent
Protocol: Test for revelation of the possible inhibitory effect of SDD on Topo II catalytic activity has been undertaken by decatenation of a catenated DNA substrate originating from Trypanosoma kinetoplasts (kDNA, TopoGen) into relaxed DNA forms.
The following standard reaction mixture contained 40 mM Tris/HCl pH 7.4, 10 mM MgCl2, 0.5 mM dithiothreitol, 1 mM ATP and […] kDNA has been carried out.
The reaction was initiated by the addition of 0.35 M NaCl nuclear extract and stopped after 20 min incubation at 37° C. by adding a denaturating solution containing 30% glycerol, 1% SDS, 0.5 mg/ml bromphenol blue.
The samples were then electrophoresed on a 1% agarose gel in 40 mM Tris/acetic acid, pH 8.0 containing 2 mM EDTA and 0.1 μg/ml ethidium bromide, for 45 min at 80V.
A positive control for decatenation was a decatenated kDNA marker obtained from TopoGen, containing a mixture of two species of relaxed
DNA, open circular DNA and covalently closed circular DNA.
DNA was visualized under UV light and the various DNA forms were quantified by densitometric scanning using the device described above.
Etoposide was used as positive control, as it is described in the following publication: Differential stabilisation of topoisomerase-II-DNA cleavable complexes doxorubicine and etoposide in doxorubicin-resistant rat glioblastoma cells. […]

A549 (lung cancer) = assay: In vitro cytotoxicity test (MTT) against human tumour cell line A549; type: cell-based; conditions: A549, 24 h contact, 48 h re-growth
Protocol: as §1, §2

HCT-15 (colon cancer) = assay: In vitro cytotoxicity test (MTT) against human tumour cell line HCT-15; type: cell-based; conditions: HCT-15, 24 h contact, 48 h re-growth
Protocol: as §1, §2

[3] = 50 mg/kg b.w. iv, 1 hour after administration
[4] = 50 mg/kg iv, 1 hour after administration

CCN1C[C@]2(COC)[C@H](O)C[C@H](OC)[C@]34C1[C@H]([C@H](OC)[C@H]23)[C@]1(OC(=O)CCCCCCC(=O)O[C@]23[C@H]5[C@@H](OC(=O)c6ccccc6)[C@](O)(C[C@H]5[C@@]56C7[C@@H]2[C@H](OC)[C@@H]5[C@](COC)(CN7CC)[C@H](O)C[C@@H]6OC)[C@@H](OC)[C@@H]3O)[C@H]2[C@@H](OC(=O)c3ccccc3)[C@](O)(C[C@H]24)[C@@H](OC)[C@@H]1O [SDD, bis[O-(14-benzoylaconine-8-yl)]-suberate]
log D (pH 7.4) [1]: 2.86
pIC50 (MCF-7 (breast cancer)): 5.43
decrease of the righting reflex (animals affected) (female Swiss mouse; [3]): 1/2
decrease of the spontaneous activity (animals affected) (female Swiss mouse; [3]): 2/2
local finding at the tails (female Swiss mouse; 50 mg/kg b.w. iv, first day to fourteenth day): oedema at the level of the tails
mortality (female Swiss mouse; 50 mg/kg b.w. single dose iv, 2 female Swiss mice): No mortality
macroscopical examination (female Swiss mouse; 50 mg/kg iv, end of the study): did not reveal any treatment-related changes
death of the animal, time after the test item administration (female Swiss mouse; 55 mg/kg b.w. single dose iv): 24 h
death of the animal, time after the test item administration (female Swiss mouse; 60 mg/kg b.w. single dose iv): 3 h
death of the animal, time after the test item administration (female Swiss mouse; 95 mg/kg b.w. single dose iv): immediately
body weight evolution (female Swiss mouse; preliminary test, throughout the study): remained normal
mortality (female Swiss mice; 50 mg/kg body weight iv, 5 female Swiss mice): No mortality
decrease of the righting reflex (animals affected) (female Swiss mice; [4]): 2/5
decrease of the spontaneous activity (animals affected) (female Swiss mice; [4]): 5/5
eyes partly closed (animals affected) (female Swiss mice; [4]): 2/5
macroscopical examination: necrosis at the level of the tail (animals affected) (female Swiss mice; 50 mg/kg iv, end of the study): 3/5
local finding at the tails (female Swiss mice; 50 mg/kg iv, first day to fourteenth day): oedema at the level of the tails
body weight evolution (female Swiss mice; 50 mg/kg iv, throughout the study): remained normal
LD50 (female Swiss mice; mouse, intravenous route): above 50 mg/kg of body weight
inhibition of Topo II activity compared to etoposide [2]: relatively moderate inhibition
pIC50 (A549 (lung cancer)): 4.73
pIC50 (HCT-15 (colon cancer)): 5.43
